From patent US20140163082A1, “PYRAZOLYL COMPOUNDS FOR USE IN REVERSING REACTIVE GLIOSIS” (priority 2011, published 2014)

Key:
[1] = test system: human retinal microvascular EC; settings: refs [16, 17, 18]; cited from earlier work
ischemic retinas = test: Real time RT-PCR analysis, in vivo (OIR retinas); design: species or system C57BL/6J mice; settings: OIR mice
Source text: mRNA levels for HIF-1, VEGF, PDGF-B, GFAP and iNOS were quantified by Real time RTPCR. We used the primers summarized in [FIG. 6C] for RT-PCR. Gene-specific molecular beacons and primers were designed to encompass the genes of interest, with beacon's annealing site to overlap with the exon-exon junctions for additional specificity [Beacon Designer 6.0, Premier Biosoft International, Palo Alto, Calif., USA]. Threshold cycle [Ct] values for the different samples were utilized for the calculation of gene expression fold change using the formula 2 to the minus power of delta delta ct. Fold changes in the HIF-1, VEGF, PDGF-B, GFAP and iNOS gene relative to the β-actin endogenous control gene were determined by the following equation: fold change=2−Δ[ΔC T], where change in threshold cycle [ΔCT]=CT [gene of interest]−CT [β-actin] and Δ [ΔCT]=ΔCT [treated]−ΔCT [untreated].
Retinal NV was induced in newborn mice as described previously. Briefly, P7 mice were exposed with their nursing mother, for 5 days [between P7 and P12] to hyperoxic conditions, by incubating them in an airtight chamber [PROOX 110 chamber O2 controller; Biospherix Ltd., Redfield, N.Y.] ventilated by a mixture of O2 and air to a final oxygen fraction of 75±2%. These incubation conditions induced vaso-obliteration and subsequent cessation of vascular development in the capillary beds of the central retina. At P12, the mice were allowed to recover in normal room air conditions and maintained for another 5 days [till P17], the day in which peak disease occurs. A condition of relative hypoxia resulted between P12 and P17, and extensive retinal NV developed in 100% of the mice. Age-matched animals with the hyperoxia-exposed groups were maintained identically, except they were exposed to room air […], 79% N2] for the entire duration of the experiment. All animals were examined and sacrificed on the same days.
A group of hyperoxia-exposed animals [n=15] were injected intravitreally [into both eyes] at P12 and P15 with 3 μl of YC-1 [100 μM] [drug-treated group]. Another group of hyperoxiaexposed mice [n=15] were injected intravitreally [into both eyes] at P12 and P15 with 3 μl of DMSO [0.2% [v/v]] [mock-treated group]. Non-treated mice grown under ambient conditions, non-treated hyperoxia-exposed mice, DMSO-treated hyperoxia-exposed mice and YC-1-treated hyperoxia-exposed mice, were all examined at different critical time points for qualitative assessment of the retinal vasculature by fluorescein angiography.

rMC-1 cells [2] = test: GFAP immunofluorescence, rMC-1; type: cell-based; settings: for GFAP protein expression (immunofluorescence): vs hypoxic controls
Procedure: (§1) Cells were placed in airtight chambers [BioSpherix, Redfield, N.Y.] and the O2 tension was maintained at 1.2% by using Pro-Ox Model 110 O2 regulator [BioSpherix, Redfield, N.Y.]. The chamber was purged with a gas mixture of 5.32% CO2, and 93.48% N2. […] Müller cells [rMC-1] and […] cells [2×10^4 cells per well] were grown on 8-well chamber slides and cultured in 300 μl of their growing media, which contained YC-1 [25-100 μM] or DMSO [0.2% v/v] and incubated under normoxia or hypoxia for 48 hours at 37° C. YC-1 or DMSO was added 5 minutes prior to the hypoxic incubation. The cells were fixed 48 hours later with 3.7% paraformaldehyde and permeabilized with 0.2% TritonTM X-100 in PBS. The cells were incubated for two hours with anti-GFAP antibody. Negative control experiments consisted of omission of the primary antibody. Cells were then incubated with HRP-conjugate working solution, followed by the addition of the […] solution [TSA Kit#2 and #4 for rMC-1 and […] staining, respectively] at 1:100 dilutions [Molecular Probes, Carlsbad, Calif.]. Digitized images were acquired utilizing AxioVision software [Zeiss Axiovert 135 and AxioCam]. Intensity values of immunofluorescence staining of GFAP in rMC-1 and […] cells was analyzed and quantified using MetamorphTM imaging analysis software version 6.0 [Universal Imaging, Sunnyvale, Calif.]. The staining intensity in our series ranged from a weak blush to moderate or strong. The amount of cells staining with the antibody was further categorized as focal [<10%], patchy [10%-50%], and diffuse [>50%]. For semiquantitative analysis, focal and/or weak staining was considered equivocal staining, and patchy or diffuse staining was subcategorized as either moderate or strong.

R28 cells [3] = test: Western blot, R28; type: cell-based, rat; settings: R28, hypoxia 48 hours, YC-1 25-100 μM
Procedure: Cells were placed in airtight chambers [BioSpherix, Redfield, N.Y.] and the O2 tension was maintained at 1.2% by using Pro-Ox Model 110 O2 regulator [BioSpherix, Redfield, N.Y.]. The chamber was purged with a gas mixture of 5.32% CO2, and 93.48% N2. […] Müller cells [rMC-1] and […] cells were seeded overnight in 6-well plates [10^5 cells/well]. Cells were treated with either YC-1 [25-100 μM] or DMSO [0.2% v/v] for 48 hours under normoxic or hypoxic environments. Reactions were terminated by addition of lysis buffer [Cell Signaling, Beverly, Mass.]. Protein content of the cell lysates was determined according to the Bradford method [Bio-Rad, Hercules, Calif.]. Aliquots [40 μg] of whole-cell lysates were separated on 7.5% SDS-PAGE, and electro-transferred onto polyvinylidene membranes [Amersham Pharmacia Biotech, Little Chalfont]. After blocking with 5% nonfat dry milk in TBS-T, the blots were incubated overnight with anti-iNOS [at 1:100] and anti-β-actin [internal control] antibodies. Then blots were washed 3×10 min washes in PBS/tween and subsequently incubated with peroxidase-conjugated anti-mouse IgG secondary antibody at 1:3000. The signals were obtained by enhanced chemiluminescence [Amersham Biosciences], and visualized by exposure to X-ray film. Upon completion of chemiluminescence, equal lane loading was checked by Ponceau S Solution [Sigma, St. Louis, Mo.]. X-ray films were scanned with a computer-assisted densitometer [model G-710; Bio-Rad] to quantify band optical density [Quantity One software; Bio-Rad].

rMC-1 cells [4] = test system: rMC-1 cells
R28 cells [5] = test: GFAP immunofluorescence, R28; type: cell-based, rat; settings: for GFAP protein expression (immunofluorescence): vs hypoxic controls
Procedure: as §1

[6] = 100 μM YC-1, vs DMSO-treated retinas
[7] = rMC-1, 25 μM YC-1, hypoxia 48 hours
[8] = R28, 25 μM YC-1, hypoxia 48 hours

## OCc1ccc(-c2nn(Cc3ccccc3)c3ccccc23)o1 [YC-1, 3-(5′-hydroxymethyl-2′-furyl)-1-benzylindazole]
[1]
  HIF-1α, HIF-2α, VEGF, EPO, ET-1, and MMP-9 protein levels: down-regulates
Ischemic retinas; [6]
  PDGF-B message (mRNA) level in retina: significantly attenuated
  VEGF message (mRNA) level in retina: significantly attenuated
  iNOS message (mRNA) level in retina: significantly attenuated
Ischemic retinas; YC-1
  HIF-1α message (mRNA) level in retinal tissue: did not have any influence
Ischemic retinas; YC-1 dual injection, vs DMSO, normalized to β-actin
  GFAP message (mRNA) level in retina: significantly attenuated
rMC-1 cells [2]; [7]
  GFAP cytoplasmic staining pattern/intensity (immunofluorescence): weaker equivocal staining intensity
  GFAP staining vs DMSO-treated hypoxic controls (immunofluorescence): remarkable inhibition
rMC-1 cells [2]; rMC-1, 50 μM YC-1, hypoxia
  GFAP protein expression (immunofluorescence): significant inhibitory effects
rMC-1 cells [2]; rMC-1, 75 μM YC-1, hypoxia
  GFAP protein expression (immunofluorescence): significant inhibitory effects
rMC-1 cells [2]; rMC-1, 100 μM YC-1, hypoxia
  GFAP staining remaining in cytoplasm (immunofluorescence): few stained regions
rMC-1 cells [2]; rMC-1, hypoxia, dose-dependent fashion
  GFAP protein levels (quantified staining intensity, FIG. 11C): significantly reduced
R28 cells [3]; vs DMSO-treated hypoxic cells
  HIF-1 protein level (Western blot): inhibited the hypoxia-induced upregulation
  PDGF-B protein level (Western blot): inhibited the hypoxia-induced upregulation
  VEGF protein level (Western blot): inhibited the hypoxia-induced upregulation
  iNOS protein level (Western blot): inhibited the hypoxia-induced upregulation
R28 cells [3]; vs non-treated hypoxic cells
  GFAP protein level (Western blot): inhibited the hypoxia-induced GFAP protein levels in a dose-dependent manner
rMC-1 cells [4]
  cell viability (DAPI exclusion): comprised the majority of cells
R28 cells [5]; [8]
  GFAP cytoplasmic staining pattern/intensity (immunofluorescence): stronger diffuse cytoplasmic GFAP staining
  GFAP staining vs DMSO-treated hypoxic controls (immunofluorescence): remarkable inhibition
R28 cells [5]; R28, 50 μM YC-1, hypoxia
  GFAP protein expression (immunofluorescence): significant inhibitory effects
R28 cells [5]; R28, 75 μM YC-1, hypoxia
  GFAP protein expression (immunofluorescence): significant inhibitory effects
R28 cells [5]; R28, 100 μM YC-1, hypoxia
  GFAP staining remaining in cytoplasm (immunofluorescence): few stained regions
R28 cells [5]; R28, hypoxia, dose-dependent fashion
  GFAP protein levels (quantified staining intensity, FIG. 11C): significantly reduced
